These results are taken from US20110152343A1, “PROTEASE INHIBITORS AND BROAD-SPECTRUM ANTIVIRAL” (Functional Genetics, Inc., priority 2009, published 2011).

Molecules are shown by their SMILES.

For this test, the system named is RSV. In words: RSV infection, timing of administration (production of virus particles).

As to `N=C(N)c1ccc2oc(/C=C/c3nc4ccc(C(=N)N)cc4[nH]3)cc2c1` [NSC 369723], the “inhibition of the production of virus particles (pfu/ml)” value (administration by roughly 18 hours after infection with RSV) is given as “much reduced or lost” and the “inhibition of the production of virus particles (pfu/ml)” value (administration from about 6-12 hours after infection with RSV) is on record as “moderately inhibited”.
